Results taken from paper PMC7413254 (Nature Communications, 2020).
Where two headings read alike, the source gives them in different places.

Key:
[1] = system: non-expressing oocytes; experiment: cells; assay type: cell-based, Xenopus laevis; details: non-expressing oocytes, total [3H]CQ transport, normalised to the oocyte type control
Outline: (§1)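 Washed oocytes (ten per treatment) were exposed to label in pH 5.5 ND96 for 1.5 h at 27.5 °C. Buffer was then removed, cells rinsed in ice-cold ND96, lysed in SDS and counted.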

[2] = target: T1, PfCRT^3D7 (Plasmodium falciparum, UniProt Q8IBZ9); experiment: cell-based; assay type: cell-based; details: PfCRT3D7 oocytes, total [3H]CQ transport, normalised to the oocyte type control
T1 sequence (Q8IBZ9 59-398): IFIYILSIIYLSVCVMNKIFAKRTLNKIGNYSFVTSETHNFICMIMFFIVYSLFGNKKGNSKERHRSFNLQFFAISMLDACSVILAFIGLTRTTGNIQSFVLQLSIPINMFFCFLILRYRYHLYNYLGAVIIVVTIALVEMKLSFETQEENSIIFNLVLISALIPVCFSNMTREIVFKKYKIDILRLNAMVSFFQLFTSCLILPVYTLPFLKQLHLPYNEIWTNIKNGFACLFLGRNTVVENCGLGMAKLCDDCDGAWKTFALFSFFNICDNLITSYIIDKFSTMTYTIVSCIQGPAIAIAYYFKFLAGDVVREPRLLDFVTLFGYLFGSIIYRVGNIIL
Outline: as §1

[3] = target: T2, PfCRT^Dd2 (Plasmodium falciparum, UniProt Q9N623, A220S/I356T/K76T/M74I/N326S/N75E/Q271E/R371I); experiment: [3H]CQ uptake into Xenopus oocytes, cis-inhibition by unlabelled solute; assay type: cell-based; details: PfCRTDd2 oocytes, background [3H]CQ accumulation subtracted, normalised to oocyte type control
T2 sequence (Q9N623 whole entry A220S/I356T/K76T/M74I/N326S/N75E/Q271E/R371I): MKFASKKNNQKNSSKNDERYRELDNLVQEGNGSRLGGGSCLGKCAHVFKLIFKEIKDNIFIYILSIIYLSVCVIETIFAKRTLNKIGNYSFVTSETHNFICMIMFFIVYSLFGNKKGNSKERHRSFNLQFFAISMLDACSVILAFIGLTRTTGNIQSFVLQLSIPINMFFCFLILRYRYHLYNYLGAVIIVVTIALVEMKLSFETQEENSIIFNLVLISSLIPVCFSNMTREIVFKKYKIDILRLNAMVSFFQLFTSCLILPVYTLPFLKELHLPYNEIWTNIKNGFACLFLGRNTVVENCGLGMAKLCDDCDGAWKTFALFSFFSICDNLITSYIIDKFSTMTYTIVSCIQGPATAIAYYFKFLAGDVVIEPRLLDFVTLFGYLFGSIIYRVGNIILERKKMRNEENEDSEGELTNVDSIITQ
Outline: as §1

[4] = target: T3, PfCRT^Ecu1110 (Plasmodium falciparum, UniProt Q9N623, A220S/I356L/K76T/N326D); experiment: as above; assay type: cell-based; details: for Uptake of [3H]CQ (% PfCRTEcu1110 control), cis-inhibition / PfCRT-mediated [3H]CQ transport, cis-inhibition (% PfCRTEcu1110 control): PfCRTEcu1110 oocytes; for Uptake of [3H]CQ (% PfCRTEcu1110 control), cis-inhibition: total [3H]CQ transport, normalised to the oocyte type control; for PfCRT-mediated [3H]CQ transport, cis-inhibition (% PfCRTEcu1110 control): background [3H]CQ accumulation subtracted, normalised to oocyte type control; for [3H]CQ transport (% PfCRTEcu1110 control), cis-inhibition, PfCRTEcu1110: PfCRT-mediated component (background subtracted), sheet title says normalised to PfCRTDd2 control, mean ± SEM, SEM
T3 sequence (Q9N623 whole entry A220S/I356L/K76T/N326D): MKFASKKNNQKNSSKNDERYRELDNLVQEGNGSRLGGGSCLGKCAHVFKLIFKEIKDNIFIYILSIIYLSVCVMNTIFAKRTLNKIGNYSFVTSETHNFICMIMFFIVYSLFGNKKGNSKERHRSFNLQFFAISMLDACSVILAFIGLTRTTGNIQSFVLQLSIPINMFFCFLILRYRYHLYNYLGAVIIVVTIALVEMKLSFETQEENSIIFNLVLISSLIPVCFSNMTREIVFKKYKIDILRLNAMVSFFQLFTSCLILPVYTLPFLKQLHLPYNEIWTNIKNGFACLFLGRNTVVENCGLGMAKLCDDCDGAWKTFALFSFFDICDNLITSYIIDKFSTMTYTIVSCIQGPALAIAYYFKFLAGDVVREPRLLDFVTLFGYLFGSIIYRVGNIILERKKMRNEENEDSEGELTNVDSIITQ
Outline: as §1

[5] = system: non-expressing oocytes; assay type: cell-based, Xenopus laevis; details: non-expressing oocytes, total [3H]CQ transport, normalised to the oocyte type control
Outline: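 Oocytes (ten per treatment, ≥4 independent frogs/days) were preloaded by injecting VF-6 in 25 nL ND96 at pH 5.0, 5.5, 6.0 or 7.0, or Na^+-free choline buffer, then uptake run 1.5 h, 27.5 °C, ND96 pH 5.5 by default. Internal concentrations assumed ~400 nL oocyte volume.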

[6] = target: T1, PfCRT^3D7; experiment: cell-based; assay type: cell-based; details: for Uptake of [3H]CQ (% PfCRT3D7 control), trans-stimulation / PfCRT-mediated [3H]CQ transport, trans-stimulation (% PfCRT3D7 control): PfCRT3D7 oocytes; for Uptake of [3H]CQ (% PfCRT3D7 control), trans-stimulation: total [3H]CQ transport, normalised to the oocyte type control; for PfCRT-mediated [3H]CQ transport, trans-stimulation (% PfCRT3D7 control): normalised to oocyte type control
Outline: (§2)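 Transport measured in Xenopus oocytes expressing the transporters, 1.5 h at 27.5 °C in ND96 pH 5.5 unless noted. For trans-stimulation, VF-6 injected in 25 nL ND96 at pH 5.0–7.0 or Na^+-free (choline) buffer; intracellular levels based on ~400 nL oocyte volume. Ten oocytes per treatment, ≥4 experiments.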

[7] = target: T2, PfCRT^Dd2; experiment: cell-based; assay type: cell-based; details: for Uptake of [3H]CQ (% PfCRTDd2 control), trans-stimulation / PfCRT-mediated [3H]CQ transport, trans-stimulation (% PfCRTDd2 control): PfCRTDd2 oocytes; for Uptake of [3H]CQ (% PfCRTDd2 control), trans-stimulation: total [3H]CQ transport, normalised to the oocyte type control; for PfCRT-mediated [3H]CQ transport, trans-stimulation (% PfCRTDd2 control): normalised to oocyte type control; for [3H]CQ transport (% PfCRTDd2 control), trans-stimulation, PfCRTDd2: PfCRT-mediated component (background subtracted), mean ± SEM, SEM
Outline: as §2

[8] = target: T3, PfCRT^Ecu1110; experiment: cell-based; assay type: cell-based; details: for Uptake of [3H]CQ (% PfCRTEcu1110 control), trans-stimulation / PfCRT-mediated [3H]CQ transport, trans-stimulation (% PfCRTEcu1110 control): PfCRTEcu1110 oocytes; for Uptake of [3H]CQ (% PfCRTEcu1110 control), trans-stimulation: total [3H]CQ transport, normalised to the oocyte type control; for PfCRT-mediated [3H]CQ transport, trans-stimulation (% PfCRTEcu1110 control): normalised to oocyte type control; for [3H]CQ transport (% PfCRTDd2 control), trans-stimulation, PfCRTEcu1110: PfCRT-mediated component (background subtracted), sheet title says normalised to PfCRTDd2 control, mean ± SEM, SEM
Outline: as §2

[9] = target: T4, PfNT1 (Plasmodium falciparum, UniProt Q8IDM6); experiment: cell-based; assay type: cell-based; details: PfNT1 oocytes, total [3H]CQ transport, normalised to the oocyte type control
T4 construct: expressed in transfected cells; host or cells: Xenopus laevis oocytes (stage V-VI), cRNA-injected
T4 sequence (Q8IDM6 whole entry): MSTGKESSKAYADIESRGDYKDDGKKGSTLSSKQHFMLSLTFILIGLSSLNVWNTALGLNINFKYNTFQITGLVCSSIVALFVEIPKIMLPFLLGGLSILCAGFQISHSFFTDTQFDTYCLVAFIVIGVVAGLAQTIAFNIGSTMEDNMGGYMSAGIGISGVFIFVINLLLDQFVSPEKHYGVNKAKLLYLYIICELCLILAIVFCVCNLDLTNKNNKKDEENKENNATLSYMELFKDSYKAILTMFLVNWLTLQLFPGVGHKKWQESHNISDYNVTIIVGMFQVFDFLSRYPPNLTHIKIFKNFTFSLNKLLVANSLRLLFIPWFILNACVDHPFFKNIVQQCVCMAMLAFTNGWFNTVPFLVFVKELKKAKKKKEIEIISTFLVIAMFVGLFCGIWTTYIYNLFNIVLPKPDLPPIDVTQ
Outline: as §2

[10] = [test solute]i = 45 mM (30 mM for some solutes due to solubility)
[11] = [test solute]i = 5 mM (intracellular)
[12] = [test solute]i = 45 mM (intracellular; 30 mM for some solutes due to solubility)
[13] = [test solute]i = 5 mM (injected)

For PHFD [PD-4], the “Uptake of [3H]CQ (% non-expressing oocyte control), cis-inhibition” value ([1]; [test solute] = 0.5 mM) was 100 ± 4.3 % non-expressing oocyte control, the “Uptake of [3H]CQ (% non-expressing oocyte control), cis-inhibition” value ([1]; [test solute] = 1 mM) was 100 ± 3.7 % non-expressing oocyte control and the “Uptake of [3H]CQ (% non-expressing oocyte control), cis-inhibition” value ([1]; [test solute] = 2 mM) was 100 ± 4.6 % non-expressing oocyte control. For the same substance, the “Uptake of [3H]CQ (% PfCRT3D7 control), cis-inhibition” value ([2]; [test solute] = 0.5 mM) was 98 ± 5.6 % PfCRT3D7 control, the “Uptake of [3H]CQ (% PfCRT3D7 control), cis-inhibition” value ([2]; [test solute] = 1 mM) was 100 ± 5.5 % PfCRT3D7 control and the “Uptake of [3H]CQ (% PfCRT3D7 control), cis-inhibition” value ([2]; [test solute] = 2 mM) was 99 ± 3.5 % PfCRT3D7 control. For the same substance, the “PfCRT-mediated [3H]CQ transport, cis-inhibition (% PfCRTDd2 control)” value ([3]; [test solute] = 0.5 mM) was 56 ± 1.1 % PfCRTDd2 control, the “PfCRT-mediated [3H]CQ transport, cis-inhibition (% PfCRTDd2 control)” value ([3]; [test solute] = 1 mM) was 42 ± 0.5 % PfCRTDd2 control and the “PfCRT-mediated [3H]CQ transport, cis-inhibition (% PfCRTDd2 control)” value ([3]; [test solute] = 2 mM) was 17 ± 0.7 % PfCRTDd2 control. For the same substance, the “Uptake of [3H]CQ (% PfCRTEcu1110 control), cis-inhibition” value ([4]; [test solute] = 0.5 mM) was 54 ± 3.1 % PfCRTEcu1110 control, the “Uptake of [3H]CQ (% PfCRTEcu1110 control), cis-inhibition” value ([4]; [test solute] = 1 mM) was 38 ± 3.1 % PfCRTEcu1110 control and the “Uptake of [3H]CQ (% PfCRTEcu1110 control), cis-inhibition” value ([4]; [test solute] = 2 mM) was 27 ± 0.8 % PfCRTEcu1110 control. The “PfCRT-mediated [3H]CQ transport, cis-inhibition (% PfCRTEcu1110 control)” value ([4]; [test solute] = 0.5 mM) was 49 ± 2.1 % PfCRTEcu1110 control, the “PfCRT-mediated [3H]CQ transport, cis-inhibition (% PfCRTEcu1110 control)” value ([4]; [test solute] = 1 mM) was 33 ± 1.5 % PfCRTEcu1110 control and the “PfCRT-mediated [3H]CQ transport, cis-inhibition (% PfCRTEcu1110 control)” value ([4]; [test solute] = 2 mM) was 24 ± 1.1 % PfCRTEcu1110 control. The “[3H]CQ transport (% PfCRTEcu1110 control), cis-inhibition, PfCRTEcu1110” value ([4]; [test solute] = 0.5 mM) was 15 ± 0.5 % PfCRTEcu1110 control, the “[3H]CQ transport (% PfCRTEcu1110 control), cis-inhibition, PfCRTEcu1110” value ([4]; [test solute] = 1 mM) was 10 ± 0.1 % PfCRTEcu1110 control and the “[3H]CQ transport (% PfCRTEcu1110 control), cis-inhibition, PfCRTEcu1110” value ([4]; [test solute] = 2 mM) was 8.0 ± 0.06 % PfCRTEcu1110 control. For the same substance, the “Uptake of [3H]CQ (% non-expressing oocyte control), trans-stimulation” value ([5]; [test solute]i = 5 mM) was 98 ± 2.0 % non-expressing oocyte control, the “Uptake of [3H]CQ (% non-expressing oocyte control), trans-stimulation” value [5, 10] was 99 ± 3.7 % non-expressing oocyte control and the “Uptake of [3H]CQ (% PfCRT3D7 control), trans-stimulation” value ([6]; [test solute]i = 5 mM) was 99 ± 3.6 % PfCRT3D7 control. For the same substance, the “Uptake of [3H]CQ (% PfCRT3D7 control), trans-stimulation” value [6, 10] was 100 ± 2.1 % PfCRT3D7 control, the “[3H]CQ transport (% PfCRT3D7 control), trans-stimulation, PfCRT3D7” value ([6]; SEM) was 0.1 ± 0.02 and the “PfCRT-mediated [3H]CQ transport, trans-stimulation (% PfCRT3D7 control)” value [6, 11] was 97 ± 2.9 % PfCRT3D7 control. The “PfCRT-mediated [3H]CQ transport, trans-stimulation (% PfCRT3D7 control)” value [6, 12] was 98 ± 4.2 % PfCRT3D7 control, the “Uptake of [3H]CQ (% PfCRTDd2 control), trans-stimulation” value ([7]; [test solute]i = 5 mM) was 102 ± 2.4 % PfCRTDd2 control and the “Uptake of [3H]CQ (% PfCRTDd2 control), trans-stimulation” value [7, 10] was 99 ± 2.9 % PfCRTDd2 control. The “PfCRT-mediated [3H]CQ transport, trans-stimulation (% PfCRTDd2 control)” value [7, 11] was 100 ± 4.2 % PfCRTDd2 control, the “PfCRT-mediated [3H]CQ transport, trans-stimulation (% PfCRTDd2 control)” value [7, 12] was 97 ± 2.8 % PfCRTDd2 control and the “[3H]CQ transport (% PfCRTDd2 control), trans-stimulation, PfCRTDd2” value [7, 13] was 100 ± 4.2 % PfCRTDd2 control. For the same substance, the “[3H]CQ transport (% PfCRTDd2 control), trans-stimulation, PfCRTDd2” value [7, 10] was 97 ± 2.8 % PfCRTDd2 control, the “Uptake of [3H]CQ (% PfCRTEcu1110 control), trans-stimulation” value ([8]; [test solute]i = 5 mM) was 98 ± 1.4 % PfCRTEcu1110 control and the “Uptake of [3H]CQ (% PfCRTEcu1110 control), trans-stimulation” value [8, 10] was 100 ± 3.5 % PfCRTEcu1110 control. The “PfCRT-mediated [3H]CQ transport, trans-stimulation (% PfCRTEcu1110 control)” value [8, 11] was 96 ± 3.2 % PfCRTEcu1110 control, the “PfCRT-mediated [3H]CQ transport, trans-stimulation (% PfCRTEcu1110 control)” value [8, 12] was 98 ± 4.3 % PfCRTEcu1110 control and the “[3H]CQ transport (% PfCRTDd2 control), trans-stimulation, PfCRTEcu1110” value [8, 13] was 29 ± 1.4 % PfCRTEcu1110 control. The “[3H]CQ transport (% PfCRTDd2 control), trans-stimulation, PfCRTEcu1110” value [8, 10] was 30 ± 1.6 % PfCRTEcu1110 control, the “Uptake of [3H]CQ (% PfNT1 control), trans-stimulation” value ([9]; [test solute]i = 5 mM) was 100 ± 3.5 % PfNT1 control and the “Uptake of [3H]CQ (% PfNT1 control), trans-stimulation” value [9, 10] was 98 ± 2.2 % PfNT1 control.
